Experiments:
Assay type in all cases: in vivo
[1] = test system: TNF-α; assay: Cytokine ELISA in CIA mice, day 60: TNF-α
Text: (§1) With continued reference to FIG. 1, in some embodiments, administration 116 may be done to an animal. As a non-limiting example, the animal may include a mouse, a fish, a rabbit, human, and the like. As a non-limiting example, administration 116 of composition of the engineered virus-based nanoparticle for a treatment of an autoimmune condition may be done to dilute, brown, and non-agouti (DBA) mice based on their susceptibility to collagen-induced arthritis (CIA). Female DBA/1 mice 6 to 8 weeks of age may be maintained under specific pathogen-free conditions. CIA may be induced by the intradermal tail base injection of 100 μg of chicken type II collagen (Sigma-Aldrich) as previously described. Five mice per group may be immunized on days 0 and 21 to induce arthritis. The onset of disease may be confirmed on the day that swelling or erythema may be observed in any paw, typically 4 to 10 days after the second immunization. […] CIA may be assessed using a macroscopic score system based on the visual identification of arthritic limbs. The clinical severity of arthritis may be evaluated as follows: Each mouse may be inspected every 2 to 3 days for three different parameters: (i) swelling of the hind ankle and foot, measured with calipers; (ii) erythema of each leg; and (iii) swelling of the fingers. The RA index for each mouse was expressed as the mean of the three scores from the individual parameters. At the end of the experiment (60 days), we determined the proportion of CD25+Foxp3+ cells in the lymph nodes and measured cytokine titers in the lymph nodes, joints, and serum.
(§2) With continued reference to FIG. 1, in some embodiments, processor 104 may determine critical administration 124 as a function of a cytokine profile and a proportion of CD25^+ Foxp3^+ cells. […] In some embodiments, to quantify cytokines in DBA mice, joint tissues may be pulverized and resuspended in 1 ml of lysis medium per 100-mg joint weight for 60 min at 37′C, followed by centrifugation to remove debris. […]

[2] = test system: IL-1β; assay: Cytokine ELISA in CIA mice, day 60: IL-1β
Text: as §1, §2

[3] = test system: IL-10; assay: Cytokine ELISA in CIA mice, day 60: IL-10; details: serum pooled from five CIA mice
Text: With continued reference to FIG. 1, in some embodiments, administration 116 may be done to an animal. As a non-limiting example, the animal may include a mouse, a fish, a rabbit, human, and the like. As a non-limiting example, administration 116 of composition of the engineered virus-based nanoparticle for a treatment of an autoimmune condition may be done to dilute, brown, and non-agouti (DBA) mice based on their susceptibility to collagen-induced arthritis (CIA). Female DBA/1 mice 6 to 8 weeks of age may be maintained under specific pathogen-free conditions. CIA may be induced by the intradermal tail base injection of 100 μg of chicken type II collagen (Sigma-Aldrich) as previously described. Five mice per group may be immunized on days 0 and 21 to induce arthritis. The onset of disease may be confirmed on the day that swelling or erythema may be observed in any paw, typically 4 to 10 days after the second immunization. Each experimental group may be treated seven times, 5 days apart, starting from day 28 after the first immunization, with intraperitoneal injections of saline (200 μI per mouse), TBSV·pLIp1, TBSV·pFADK2, pLIp1+IFA, and pFADK2+IFA (all 50 μg per mouse in 200 μl) or dexamethasone (5 μg per mouse in 200 μl). […] CIA may be assessed using a macroscopic score system based on the visual identification of arthritic limbs.

[4] = joint supernatant, CIA mice, day 60, mean n=3
[5] = lymph node supernatant, CIA mice, day 60, mean n=3
[6] = serum pooled from five CIA mice, day 60

C[C@@H]1C[C@H]2[C@@H]3CCC4=CC(=O)C=C[C@]4(C)[C@@]3(F)[C@@H](O)C[C@]2(C)[C@@]1(O)C(=O)CO [Dexamethasone, dexamethasone]
TNF-α J [1, 4]: 49.20 pg/mL | TNF-α LN [1, 5]: 107.90 pg/mL | TNF-α S [1, 6]: 24.2 pg/mL | IL-1β J [2, 4]: 38.43 pg/mL | IL-1β LN [2, 5]: 65.63 pg/mL | IL-1β S [2, 6]: 26.6 pg/mL | IL-10 [3]: 71.6 pg/mL

Reference: US12527849B2, “Apparatus for determining administration form of a composition of an engineered virus-based nanoparticle for a treatment of an autoimmune condition” (Diamante Srl, priority 2021, dated 2026)
